Measurements reported in ChEMBL document CHEMBL1201862, “PubChem BioAssay data set” (2004).
Calls of active or inactive are those of the source.

Tests used:
[1] = target: T1, Caspase-6 (Homo sapiens, UniProt P55212); assay: human caspase-6 inhibitors, dose response, biochemical, VEID-R110 fluorescence, cherry-pick (AID 720632)
T1 sequence (P55212 whole entry): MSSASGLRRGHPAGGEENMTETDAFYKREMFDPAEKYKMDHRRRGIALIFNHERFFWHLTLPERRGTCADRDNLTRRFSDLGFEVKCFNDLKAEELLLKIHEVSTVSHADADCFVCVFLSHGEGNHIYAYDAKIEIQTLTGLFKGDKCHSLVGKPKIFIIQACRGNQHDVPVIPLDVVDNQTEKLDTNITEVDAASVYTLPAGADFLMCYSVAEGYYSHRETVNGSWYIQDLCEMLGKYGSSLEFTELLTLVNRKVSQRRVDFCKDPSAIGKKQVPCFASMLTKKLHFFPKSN

[2] = test system: BJ; assay: cytotoxicity toward BJ-TERT-LT-ST fibroblasts, dose response, cell-based, RAS-independent, luminescence (AID 1935); assay type: functional; details: Homo sapiens;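 further: BJ fibroblasts immortalized with TERT plus LT and ST oncogenes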
[3] = non-specific cell cytotoxicity, dose response, cytotoxicity control for PAX8 inhibitor project, plate reader, dry powder samples (AID 743021); assay type: functional, cell-based
[4] = target: T2, Insulin-degrading enzyme (Homo sapiens, UniProt P14735); assay: activators of endogenous IDE in HEK cells, dose response, cell-based, fluorescence polarization (AID 588439); assay type: functional
T2 sequence (P14735 whole entry): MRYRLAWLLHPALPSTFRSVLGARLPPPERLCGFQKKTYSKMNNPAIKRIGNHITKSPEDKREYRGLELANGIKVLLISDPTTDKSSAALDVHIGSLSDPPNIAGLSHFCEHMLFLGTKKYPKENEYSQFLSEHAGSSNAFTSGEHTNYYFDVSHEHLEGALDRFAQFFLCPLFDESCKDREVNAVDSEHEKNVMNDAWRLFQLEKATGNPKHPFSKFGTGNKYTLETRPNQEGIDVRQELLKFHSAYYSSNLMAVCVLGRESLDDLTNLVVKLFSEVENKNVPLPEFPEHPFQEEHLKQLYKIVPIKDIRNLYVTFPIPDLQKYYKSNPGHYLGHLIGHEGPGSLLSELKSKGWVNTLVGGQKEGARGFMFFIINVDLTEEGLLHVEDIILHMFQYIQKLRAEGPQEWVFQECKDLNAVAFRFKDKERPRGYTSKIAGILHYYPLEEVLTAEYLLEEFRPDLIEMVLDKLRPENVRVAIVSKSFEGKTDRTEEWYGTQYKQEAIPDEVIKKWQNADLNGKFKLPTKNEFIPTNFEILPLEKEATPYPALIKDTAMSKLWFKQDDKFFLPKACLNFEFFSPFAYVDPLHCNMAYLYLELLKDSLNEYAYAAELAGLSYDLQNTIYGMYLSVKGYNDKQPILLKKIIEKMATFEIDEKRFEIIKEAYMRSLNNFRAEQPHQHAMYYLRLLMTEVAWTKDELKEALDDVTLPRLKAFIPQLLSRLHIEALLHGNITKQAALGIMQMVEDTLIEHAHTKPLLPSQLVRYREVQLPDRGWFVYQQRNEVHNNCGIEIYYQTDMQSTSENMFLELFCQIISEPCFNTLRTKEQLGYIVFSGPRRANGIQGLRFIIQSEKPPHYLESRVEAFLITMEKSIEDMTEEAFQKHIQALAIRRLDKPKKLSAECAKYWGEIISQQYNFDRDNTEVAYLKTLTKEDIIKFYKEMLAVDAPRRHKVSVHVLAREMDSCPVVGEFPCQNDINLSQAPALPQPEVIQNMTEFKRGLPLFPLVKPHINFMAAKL

[5] = target: Paired box protein Pax-8 (Homo sapiens, UniProt Q06710); assay: inhibitors of PAX8-driven TPO luciferase reporter, dose response, RMG-I cells, cherry-pick (AID 687027); assay type: functional, cell-based;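 further: luciferase reporter driven by Pax8 target thyroperoxidase promoter measured by SteadyGlo luminescence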
[6] = target: Nonstructural protein 1 (Influenza A virus, UniProt Q194T2); assay type: functional, Influenza A virus (A/California/07/2009(H1N1))
[7] = target: Serine/threonine-protein phosphatase (Homo sapiens, UniProt Q9BPW0); assay: PP5 phosphatase inhibitors, dose response, biochemical, fluorescence (AID 2395)
[8] = target: Eukaryotic elongation factor 2 kinase (Homo sapiens, UniProt O00418); assay type: functional
[9] = target: Homeodomain-interacting protein kinase 4 (Homo sapiens, UniProt Q8NE63); assay type: functional
[10] = target: cAMP-dependent protein kinase catalytic subunit alpha (Homo sapiens, UniProt P17612); assay type: functional
[11] = target: Rho-associated protein kinase 1 (Homo sapiens, UniProt Q13464); assay type: functional;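 further: measured within a broad kinome-wide panel profiling many kinases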
[12] = target: Interleukin-1 receptor-associated kinase 4 (Homo sapiens, UniProt Q9NWZ3); assay type: functional
[13] = target: Proto-oncogene tyrosine-protein kinase Src (Homo sapiens, UniProt P12931); assay type: functional;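 further: SRC entry within a kinome-wide kinase profiling panel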
[14] = target: Fibroblast growth factor receptor 1 (Homo sapiens, UniProt P11362); assay type: functional
[15] = target: Serine/threonine-protein kinase Nek2 (Homo sapiens, UniProt P51955); assay type: functional
[16] = target: T3, Aurora kinase A (Homo sapiens, UniProt O14965); assay type: functional;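 further: value from the Navigating the Kinome kinase panel profiling, panel entry STK6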
T3 sequence (O14965 whole entry): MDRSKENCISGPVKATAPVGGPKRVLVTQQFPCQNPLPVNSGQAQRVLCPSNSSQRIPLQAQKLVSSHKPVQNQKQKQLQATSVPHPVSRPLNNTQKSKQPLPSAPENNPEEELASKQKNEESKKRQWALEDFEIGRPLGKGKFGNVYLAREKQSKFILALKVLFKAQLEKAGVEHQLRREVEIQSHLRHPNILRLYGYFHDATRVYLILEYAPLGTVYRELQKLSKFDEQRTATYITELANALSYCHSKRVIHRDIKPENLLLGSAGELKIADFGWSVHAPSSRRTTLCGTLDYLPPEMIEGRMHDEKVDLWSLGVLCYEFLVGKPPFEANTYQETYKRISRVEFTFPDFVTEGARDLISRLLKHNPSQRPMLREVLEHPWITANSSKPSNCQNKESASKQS

[17] = target: Vascular endothelial growth factor receptor 2 (Homo sapiens, UniProt P35968); assay type: functional
[18] = target: Serine/threonine-protein kinase Chk1 (Homo sapiens, UniProt O14757); assay type: functional;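 further: measured as one member of a kinome-wide kinase profiling panel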
[19] = target: Vascular endothelial growth factor receptor 1 (Homo sapiens, UniProt P17948); assay type: functional;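 further: measured within a kinome-wide profiling panel, FLT1 as the panel member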
Sequence of Vascular endothelial growth factor receptor 1 (P17948 whole entry): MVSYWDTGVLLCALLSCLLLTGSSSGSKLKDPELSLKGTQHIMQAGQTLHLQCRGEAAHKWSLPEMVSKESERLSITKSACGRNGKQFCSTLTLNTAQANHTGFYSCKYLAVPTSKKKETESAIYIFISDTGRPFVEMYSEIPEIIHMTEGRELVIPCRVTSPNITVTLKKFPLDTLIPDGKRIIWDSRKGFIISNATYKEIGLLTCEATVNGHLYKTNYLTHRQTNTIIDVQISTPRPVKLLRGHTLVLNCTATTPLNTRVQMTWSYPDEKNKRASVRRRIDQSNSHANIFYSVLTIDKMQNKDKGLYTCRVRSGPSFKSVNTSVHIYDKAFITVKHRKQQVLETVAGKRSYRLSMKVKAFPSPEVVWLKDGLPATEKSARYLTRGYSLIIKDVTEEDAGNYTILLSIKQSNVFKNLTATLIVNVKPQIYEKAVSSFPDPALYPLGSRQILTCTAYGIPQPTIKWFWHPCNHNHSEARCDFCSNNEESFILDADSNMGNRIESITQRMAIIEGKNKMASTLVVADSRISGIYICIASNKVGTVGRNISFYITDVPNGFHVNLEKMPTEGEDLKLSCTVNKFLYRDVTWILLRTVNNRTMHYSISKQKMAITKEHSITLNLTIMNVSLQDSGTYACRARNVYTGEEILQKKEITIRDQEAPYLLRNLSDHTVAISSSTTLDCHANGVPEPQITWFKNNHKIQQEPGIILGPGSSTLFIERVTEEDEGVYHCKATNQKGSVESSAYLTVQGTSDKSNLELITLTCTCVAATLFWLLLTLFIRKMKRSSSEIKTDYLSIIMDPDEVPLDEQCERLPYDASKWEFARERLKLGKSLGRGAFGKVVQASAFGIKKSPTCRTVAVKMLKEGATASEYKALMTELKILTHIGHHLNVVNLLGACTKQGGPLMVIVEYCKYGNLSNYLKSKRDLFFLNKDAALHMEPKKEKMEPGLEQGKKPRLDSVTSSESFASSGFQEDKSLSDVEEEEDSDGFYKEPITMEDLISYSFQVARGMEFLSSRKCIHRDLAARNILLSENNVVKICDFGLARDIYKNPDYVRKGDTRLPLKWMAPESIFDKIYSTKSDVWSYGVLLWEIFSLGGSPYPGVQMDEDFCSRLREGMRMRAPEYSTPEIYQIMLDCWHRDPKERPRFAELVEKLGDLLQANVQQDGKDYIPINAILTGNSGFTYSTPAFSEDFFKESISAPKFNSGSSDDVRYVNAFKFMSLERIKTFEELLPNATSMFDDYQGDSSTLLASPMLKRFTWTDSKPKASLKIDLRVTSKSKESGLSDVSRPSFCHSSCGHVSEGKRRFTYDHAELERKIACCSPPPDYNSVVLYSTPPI

Sequence of Rho-associated protein kinase 1 (Q13464 whole entry): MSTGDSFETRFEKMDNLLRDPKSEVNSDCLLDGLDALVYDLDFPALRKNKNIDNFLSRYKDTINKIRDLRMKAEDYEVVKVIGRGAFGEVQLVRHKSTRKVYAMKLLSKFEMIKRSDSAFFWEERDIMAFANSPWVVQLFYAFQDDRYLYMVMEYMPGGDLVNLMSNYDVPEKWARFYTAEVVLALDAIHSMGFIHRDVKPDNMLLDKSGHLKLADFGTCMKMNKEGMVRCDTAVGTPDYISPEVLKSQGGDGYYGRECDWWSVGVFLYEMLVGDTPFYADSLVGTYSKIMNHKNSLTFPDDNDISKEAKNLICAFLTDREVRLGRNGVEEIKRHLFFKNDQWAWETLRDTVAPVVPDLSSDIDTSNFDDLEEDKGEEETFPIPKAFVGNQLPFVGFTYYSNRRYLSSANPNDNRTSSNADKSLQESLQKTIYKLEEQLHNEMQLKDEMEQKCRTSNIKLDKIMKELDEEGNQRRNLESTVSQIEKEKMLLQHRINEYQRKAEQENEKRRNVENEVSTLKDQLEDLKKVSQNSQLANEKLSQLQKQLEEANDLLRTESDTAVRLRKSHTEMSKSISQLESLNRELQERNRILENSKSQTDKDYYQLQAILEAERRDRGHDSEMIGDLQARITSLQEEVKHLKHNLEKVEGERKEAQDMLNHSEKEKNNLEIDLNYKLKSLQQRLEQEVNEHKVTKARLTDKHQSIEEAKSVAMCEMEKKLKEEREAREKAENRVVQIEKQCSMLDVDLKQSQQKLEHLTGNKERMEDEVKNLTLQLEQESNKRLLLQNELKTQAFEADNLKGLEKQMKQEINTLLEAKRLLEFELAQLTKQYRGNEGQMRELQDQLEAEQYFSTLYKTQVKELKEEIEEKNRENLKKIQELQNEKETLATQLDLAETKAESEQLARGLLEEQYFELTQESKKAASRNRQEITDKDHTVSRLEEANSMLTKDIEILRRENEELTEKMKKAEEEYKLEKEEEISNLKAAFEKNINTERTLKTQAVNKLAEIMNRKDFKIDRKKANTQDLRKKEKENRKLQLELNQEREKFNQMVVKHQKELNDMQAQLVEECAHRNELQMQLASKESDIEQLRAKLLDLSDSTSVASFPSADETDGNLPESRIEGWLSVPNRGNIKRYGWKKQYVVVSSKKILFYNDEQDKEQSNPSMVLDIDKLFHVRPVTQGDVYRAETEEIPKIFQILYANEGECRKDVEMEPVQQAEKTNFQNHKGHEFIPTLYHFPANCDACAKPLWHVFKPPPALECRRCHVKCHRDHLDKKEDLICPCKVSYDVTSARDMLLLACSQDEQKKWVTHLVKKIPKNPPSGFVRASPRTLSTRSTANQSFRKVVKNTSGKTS
Sequence of Fibroblast growth factor receptor 1 (P11362 whole entry): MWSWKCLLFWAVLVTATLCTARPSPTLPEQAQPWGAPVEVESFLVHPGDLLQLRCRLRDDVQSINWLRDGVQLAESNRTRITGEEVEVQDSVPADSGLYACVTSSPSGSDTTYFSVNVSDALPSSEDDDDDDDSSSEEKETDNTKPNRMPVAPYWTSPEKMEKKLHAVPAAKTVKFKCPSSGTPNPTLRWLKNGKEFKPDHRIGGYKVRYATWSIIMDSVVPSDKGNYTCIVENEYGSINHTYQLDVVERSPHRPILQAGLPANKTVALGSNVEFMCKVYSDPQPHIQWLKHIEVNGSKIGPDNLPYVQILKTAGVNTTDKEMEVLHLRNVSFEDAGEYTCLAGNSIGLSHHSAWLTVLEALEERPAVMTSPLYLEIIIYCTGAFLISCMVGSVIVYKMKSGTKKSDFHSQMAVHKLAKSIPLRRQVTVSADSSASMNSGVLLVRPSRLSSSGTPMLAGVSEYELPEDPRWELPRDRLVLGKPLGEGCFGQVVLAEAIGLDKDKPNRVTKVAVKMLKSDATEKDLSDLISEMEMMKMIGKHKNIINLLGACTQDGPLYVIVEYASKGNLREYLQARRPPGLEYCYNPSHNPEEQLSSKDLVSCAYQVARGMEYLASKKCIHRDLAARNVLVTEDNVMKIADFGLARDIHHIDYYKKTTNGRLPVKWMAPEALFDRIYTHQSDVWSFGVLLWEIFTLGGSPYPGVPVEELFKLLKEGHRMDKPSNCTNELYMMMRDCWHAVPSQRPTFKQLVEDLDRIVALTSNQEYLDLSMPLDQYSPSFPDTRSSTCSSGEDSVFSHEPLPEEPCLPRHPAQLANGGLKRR
Sequence of Serine/threonine-protein phosphatase (Q9BPW0 whole entry): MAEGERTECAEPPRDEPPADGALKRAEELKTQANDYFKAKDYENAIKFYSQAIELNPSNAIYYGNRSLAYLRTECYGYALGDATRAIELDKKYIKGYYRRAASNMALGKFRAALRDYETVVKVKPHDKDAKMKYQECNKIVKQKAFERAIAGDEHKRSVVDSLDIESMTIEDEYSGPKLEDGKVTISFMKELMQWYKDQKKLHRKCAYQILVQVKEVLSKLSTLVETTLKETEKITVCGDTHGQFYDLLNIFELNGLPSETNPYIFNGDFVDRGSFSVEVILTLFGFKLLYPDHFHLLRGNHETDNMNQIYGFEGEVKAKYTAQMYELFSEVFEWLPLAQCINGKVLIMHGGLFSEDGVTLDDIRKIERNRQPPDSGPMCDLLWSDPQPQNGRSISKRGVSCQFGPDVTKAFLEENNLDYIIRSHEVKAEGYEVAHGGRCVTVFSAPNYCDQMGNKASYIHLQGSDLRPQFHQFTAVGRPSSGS
Sequence of Proto-oncogene tyrosine-protein kinase Src (P12931 2-536 limits assumed): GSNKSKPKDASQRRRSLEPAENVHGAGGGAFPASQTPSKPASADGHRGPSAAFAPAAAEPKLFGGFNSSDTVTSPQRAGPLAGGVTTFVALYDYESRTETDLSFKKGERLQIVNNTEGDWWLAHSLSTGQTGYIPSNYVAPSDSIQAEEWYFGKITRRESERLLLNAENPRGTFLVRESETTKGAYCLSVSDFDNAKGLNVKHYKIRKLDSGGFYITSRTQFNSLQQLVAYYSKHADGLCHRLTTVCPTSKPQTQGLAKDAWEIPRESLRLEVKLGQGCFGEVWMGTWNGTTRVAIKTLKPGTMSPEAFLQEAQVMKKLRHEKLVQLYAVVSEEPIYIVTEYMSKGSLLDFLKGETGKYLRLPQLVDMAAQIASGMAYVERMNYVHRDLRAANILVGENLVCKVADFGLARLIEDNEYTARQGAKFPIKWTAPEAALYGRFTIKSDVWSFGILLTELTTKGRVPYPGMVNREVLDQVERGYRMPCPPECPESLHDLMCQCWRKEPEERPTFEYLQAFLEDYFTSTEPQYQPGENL
Sequence of Serine/threonine-protein kinase Nek2 (P51955 whole entry): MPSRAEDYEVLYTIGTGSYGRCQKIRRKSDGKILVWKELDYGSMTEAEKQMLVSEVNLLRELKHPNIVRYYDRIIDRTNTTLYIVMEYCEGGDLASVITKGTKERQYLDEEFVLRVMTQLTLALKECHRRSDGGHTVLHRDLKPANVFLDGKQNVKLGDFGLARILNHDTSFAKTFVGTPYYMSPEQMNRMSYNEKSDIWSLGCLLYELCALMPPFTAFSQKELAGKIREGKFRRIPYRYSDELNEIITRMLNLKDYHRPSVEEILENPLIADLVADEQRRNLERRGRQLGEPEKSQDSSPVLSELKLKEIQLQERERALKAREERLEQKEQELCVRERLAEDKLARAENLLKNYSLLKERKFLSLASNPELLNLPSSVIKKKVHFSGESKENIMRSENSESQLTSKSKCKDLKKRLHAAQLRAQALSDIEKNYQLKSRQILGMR

**Q.** With `O=[N+]([O-])c1c(Nc2ccccn2)cc(Cl)c2nonc12` as the molecule, how does the AC50 [1] read?
**A.** The AC50 was 1.06 µM (active).

**Q.** What about the EC50 [2] of the same molecule?
**A.** Its EC50 is 3.95 µM (inconclusive).

**Q.** What does the source list for `CC[C@@H](C)[C@H](CNC)NC[C@@H](Cc1cccc2ccccc12)NCCc1cccc(C(F)(F)F)c1`?
**A.** AC50 [3]: 27.5 µM (active); EC50 [4]: 6.41 µM (active); AC50 [5]: 11.9 µM (active)

**Q.** For `Cc1ccc(S(=O)(=O)/N=C2\C=C(Nc3cccc(C(=O)O)c3)C(=O)c3ccccc32)cc1`, which IC50 [6] is on record?
**A.** The IC50 was 19.9 µM (active).

**Q.** For `Cc1ccc(C(=O)NC2(O)C(=O)c3ccccc3C2=O)cc1C`, which IC50 [7] is on record?
**A.** Its IC50 is > 828 nM (active).

**Q.** Which Ki [8] does the source give for `CC(C)(CO)CNc1nccc(-c2c(-c3ccc(F)cc3)nc3c(CC4CC4)nccn23)n1` here?
**A.** Its Ki is > 3.98 µM (inactive).

**Q.** And the Ki [9]?
**A.** The Ki was > 7.94 µM (inactive).

**Q.** And the Ki [10]?
**A.** Its Ki is > 7.94 µM (inactive).

**Q.** And the Ki [11]?
**A.** Its Ki is > 10 µM (inactive).

**Q.** What about the Ki [12] of the same molecule?
**A.** The Ki was > 10 µM (inactive).

**Q.** And the Ki [13]?
**A.** The Ki was > 2 µM (inactive).

**Q.** And the Ki [14]?
**A.** The Ki was > 5.01 µM (inactive).

**Q.** And the Ki [15]?
**A.** Its Ki is > 10 µM (inactive).

**Q.** And the Ki [16]?
**A.** The Ki was > 3.98 µM (inactive).

**Q.** What about the Ki [17] of the same molecule?
**A.** The Ki was > 7.94 µM (inactive).

**Q.** And the Ki [18]?
**A.** The Ki was > 7.94 µM (inactive).

**Q.** And the Ki [19]?
**A.** Its Ki is > 398 nM (inactive).
